Assay results as given in ChEMBL document CHEMBL4043239, “Discovery and optimization of oxadiazole-based FLAP inhibitors” (Bioorg Med Chem Lett, 2017).
Converted amounts (≈) assume the structure as drawn.

What was measured:
[1] = molecular target: T1, Arachidonate 5-lipoxygenase-activating protein (Homo sapiens, UniProt P20292); assay: Displacement of [125I]-L-691831 from human FLAP expressed in Sf9 cell membranes after 2 hrs by Topcount method
T1 sequence (P20292 whole entry): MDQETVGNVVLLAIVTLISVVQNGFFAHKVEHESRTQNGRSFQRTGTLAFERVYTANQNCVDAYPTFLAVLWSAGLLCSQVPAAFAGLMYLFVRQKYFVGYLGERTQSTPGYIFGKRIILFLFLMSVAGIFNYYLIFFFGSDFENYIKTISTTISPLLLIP

[2] = Aqueous equilibrium solubility in citric acid/disodium phosphate buffer at pH 6.8 at 1 uM after 24 hrs by HPLC method; format: physicochemical; conditions: for solubility: buffer, pH 6.8, 24 h, 1 µM; for solubility thermodynamic at 24 h, 1 µM: citric acid/disodium phosphate buffer, pH 6.8
[3] = Aqueous kinetic solubility of the compound at pH 7.4; format: physicochemical; conditions: for Kinetic_solubility: buffer; for solubility kinetic: aqueous, read-out: Kinetic_solubility
[4] = molecular target: T1, Arachidonate 5-lipoxygenase-activating protein; assay: Inhibition of FLAP in calcimycin-stimulated human whole blood assessed as reduction in LTB4 production pretreated for 15 mins followed by calcimycin addition after 30 mins by ELISA
[5] = Stability in human liver microsomes at 1 uM pretreated for 10 mins followed by NADPH addition after 60 mins by LC/MS analysis relative to hepatic blood flow; format: ADME, microsome; conditions: read-out: Stability
[6] = molecular target: T2, hERG (KCNH2) (Homo sapiens, UniProt Q12809); assay: Inhibition of human ERG expressed in CHO cells at 14 uM at -70mV holding potential measured after 300 secs by IonWorks electrophysiology method relative to control; format: cell-based; conditions: CHO cells expressing human ERG
T2 sequence (Q12809 whole entry): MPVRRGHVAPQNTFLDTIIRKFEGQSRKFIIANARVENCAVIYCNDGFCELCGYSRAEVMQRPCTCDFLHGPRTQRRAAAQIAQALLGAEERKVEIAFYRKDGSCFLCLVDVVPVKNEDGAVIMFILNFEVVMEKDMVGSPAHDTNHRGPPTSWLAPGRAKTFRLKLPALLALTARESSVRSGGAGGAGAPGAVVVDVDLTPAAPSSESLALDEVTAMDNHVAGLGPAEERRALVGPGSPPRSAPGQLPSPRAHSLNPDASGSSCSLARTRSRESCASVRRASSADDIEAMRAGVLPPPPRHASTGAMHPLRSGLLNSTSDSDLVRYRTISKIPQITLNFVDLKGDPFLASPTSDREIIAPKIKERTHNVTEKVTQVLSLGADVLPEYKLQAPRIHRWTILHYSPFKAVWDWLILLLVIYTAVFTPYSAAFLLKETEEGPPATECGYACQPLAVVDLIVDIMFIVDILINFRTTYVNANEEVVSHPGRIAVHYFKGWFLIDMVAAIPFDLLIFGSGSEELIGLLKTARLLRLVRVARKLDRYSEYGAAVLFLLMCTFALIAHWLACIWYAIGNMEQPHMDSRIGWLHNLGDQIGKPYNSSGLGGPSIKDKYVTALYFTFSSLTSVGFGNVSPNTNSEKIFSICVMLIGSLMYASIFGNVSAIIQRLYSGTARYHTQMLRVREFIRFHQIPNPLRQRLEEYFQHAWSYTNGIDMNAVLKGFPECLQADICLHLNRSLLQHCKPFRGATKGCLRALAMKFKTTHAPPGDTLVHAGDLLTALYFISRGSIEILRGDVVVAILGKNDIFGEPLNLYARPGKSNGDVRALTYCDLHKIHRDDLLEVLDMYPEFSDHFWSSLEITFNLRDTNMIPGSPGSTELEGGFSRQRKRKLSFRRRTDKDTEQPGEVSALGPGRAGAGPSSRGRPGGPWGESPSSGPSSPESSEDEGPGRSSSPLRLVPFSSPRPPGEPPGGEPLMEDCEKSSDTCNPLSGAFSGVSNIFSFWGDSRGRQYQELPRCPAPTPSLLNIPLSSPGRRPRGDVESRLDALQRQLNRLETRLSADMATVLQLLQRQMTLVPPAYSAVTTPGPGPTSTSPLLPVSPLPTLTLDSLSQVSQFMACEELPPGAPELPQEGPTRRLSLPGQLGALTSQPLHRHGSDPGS

[7] = molecular target: T2, hERG (KCNH2); assay: Inhibition of human ERG expressed in CHO cells at 11 uM at -70mV holding potential measured after 300 secs by IonWorks electrophysiology method relative to control; format: cell-based; conditions: CHO cells expressing human ERG
[8] = molecular target: T3, Arachidonate 5-lipoxygenase-activating protein (Homo sapiens) (UniProt P20292); assay: Ratio of IC50 for FLAP in calcimycin-stimulated human whole blood to IC50 for displacement of [125I]-L-691831 from human FLAP expressed in Sf9 cell membranes
T3 sequence (whole entry): T1 sequence (P20292 whole entry)

[9] = Clearance in human hepatocytes at 1 uM measured after 1 hr by LC/MS analysis relative to hepatic blood flow; format: ADME, cell-based, Hepatocyte
[10] = molecular target: T2, hERG (KCNH2); assay: Inhibition of human ERG expressed in CHO cells at 30 uM at -70mV holding potential measured after 300 secs by IonWorks electrophysiology method relative to control; format: cell-based; conditions: CHO cells expressing human ERG

SMILES	IC50 [1] [nM]	IC50 [4] [nM]	hepatic extraction ratio at 1 h, 1 µM [5]	solubility kinetic [3] [µg/mL]	other results
CN(C(=O)Cn1cc(-c2nc(C3(c4ccc(-c5cnc(N)nc5)nc4)CCC3)no2)cn1)C(C)(C)C		262		27 (≈ 55.4 µM)	
CC(C)(O)Cn1cc(-c2nc(C3(c4ccc(-c5cnc(N)nc5)cc4)CCC3)no2)cn1				> 43	
Cn1cc(-c2nc(C3(c4ccc(-c5cnc(N)nc5)cn4)CCC3)no2)cn1		787		> 37	
CC(C)OC1CCN(c2nc(C3(c4ccc(-c5cnc(N)nc5)cc4)CCC3)no2)CC1	48	174	0.37	16 (≈ 36.8 µM)	inhibition at 5 min, 14 µM [6]: 85%
Cn1cc(-c2nc(C3(c4ccc(-c5cnc(N)nc5)nc4)CCC3)no2)cn1		270	0.19	24 (≈ 64.1 µM)	inhibition at 5 min, 11 µM [7]: 11%
Nc1ncc(-c2ccc(C3(c4noc(N)n4)CCC3)cc2)cn1				22 (≈ 71.3 µM)	
Nc1ncc(-c2ccc(C3(c4noc(N5CCN(CC6CCCO6)CC5)n4)CCC3)cc2)cn1 (stereo not given)	92	182	0.49	26 (≈ 56.3 µM)	Ratio IC50 [8]: 2
COCCn1cc(-c2nc(C3(c4ccc(-c5cnc(N)nc5)nc4)CCC3)no2)cn1		213		> 41	
Nc1ncc(-c2ccc(C3(c4noc(N5CC[C@H](O)C5)n4)CCC3)cc2)cn1		202	< 0.24	> 37	Ratio IC50 [8]: 6
Cc1cc(-c2nc(C3(c4ccc(-c5cnc(N)nc5)nc4)CCC3)no2)[nH]n1		164		> 37	
CC(C)(C)NC(=O)Cn1cc(-c2nc(C3(c4ccc(-c5cnc(N)nc5)cc4)CCC3)no2)cn1				22 (≈ 46.6 µM)	
Nc1ncc(-c2ccc(C3(c4noc(N5CCNCC5)n4)CCC3)cc2)cn1	324	680	0.35	> 37	Ratio IC50 [8]: 2
CC(C)(O)Cn1cc(-c2nc(C3(c4ccc(-c5cnc(N)nc5)nc4)CCC3)no2)cn1		124	< 0.24	> 43	solubility thermodynamic at 24 h, 1 µM [2]: 45 µg/mL (≈ 104 µM); hepatic extraction ratio at 1 h, 1 µM [9]: 0.5; inhibition at 5 min, 11 µM [7]: < 10%
Nc1ncc(-c2ccc(C3(c4noc(N5CCCC5)n4)CCC3)cc2)cn1		467		16 (≈ 44.1 µM)	Ratio IC50 [8]: 56
CN(C(=O)Cn1cc(-c2nc(C3(c4ccc(-c5cnc(N)nc5)cc4)CCC3)no2)cn1)C(C)(C)C				2 (≈ 4.11 µM)	
CN(C)c1nc(C2(c3ccc(-c4cnc(N)nc4)cc3)CCC2)no1				1.9 (≈ 5.65 µM)	
CCn1cc(-c2nc(C3(c4ccc(-c5cnc(N)nc5)nc4)CCC3)no2)cn1		192		> 38	
COCCn1cc(-c2nc(C3(c4ccc(-c5cnc(N)nc5)cc4)CCC3)no2)cn1				> 41	
Nc1ncc(-c2ccc(C3(c4noc(N5CCCC5)n4)CCC3)cn2)cn1		917			
Cc1cc(-c2nc(C3(c4ccc(-c5cnc(N)nc5)cn4)CCC3)no2)[nH]n1		342		> 37	
CN(C)c1nc(C2(c3ccc(-c4cnc(N)nc4)nc3)CCC2)no1		2600			
CC1(O)CCN(c2nc([C@@](C)(c3ccc(-c4cnc(N)nc4)nc3)C3CC3)no2)CC1	97	115			inhibition at 5 min, 30 µM [10]: 17%
CC(C)(C)NC(=O)Cn1cc(-c2nc(C3(c4ccc(-c5cnc(N)nc5)nc4)CCC3)no2)cn1		195		26 (≈ 54.9 µM)	
Nc1ncc(-c2ccc(C3(c4noc(N5CCC(O)CC5)n4)CCC3)cn2)cn1		595			inhibition at 5 min, 30 µM [10]: 51%
Nc1ncc(-c2ccc(C3(c4noc(-c5cnn(C6COC6)c5)n4)CCC3)cc2)cn1				> 41	inhibition at 5 min, 11 µM [7]: 43%
Cn1cc(-c2nc(C3(c4ccc(-c5cnc(N)nc5)cc4)CCC3)no2)cn1				14 (≈ 37.5 µM)	inhibition at 5 min, 11 µM [7]: 25%
CC(C)[C@](C)(c1ccc(-c2cnc(N)nc2)nc1)c1noc(-c2cnn(CC(=O)N(C)C)c2)n1	54	197	< 0.3		solubility [2]: Soluble; Kinetic_solubility [3]: Soluble
CC(C)(CO)n1cc(-c2nc(C3(c4ccc(-c5cnc(N)nc5)nc4)CCC3)no2)cn1		403		> 43	
CC(C)(CO)n1cc(-c2nc(C3(c4ccc(-c5cnc(N)nc5)cc4)CCC3)no2)cn1		155		> 43	

Further lines, with some results ahead:

IC50 [1] [nM]	IC50 [4] [nM]	hepatic extraction ratio at 1 h, 1 µM [5]	solubility kinetic [3] [µg/mL]	SMILES	other results
2.9	48	0.67		CN(C)C(=O)Cn1cc(-c2nc([C@@](C)(c3ccc(-c4cnc(N)nc4)nc3)C3CC3)no2)cn1	solubility [2]: Soluble; Kinetic_solubility [3]: Soluble
16	33	< 0.3		CC(C)[C@](C)(c1ccc(-c2cnc(N)nc2)nc1)c1noc(-c2cnn(C)c2)n1	solubility thermodynamic at 24 h, 1 µM [2]: 4 µg/mL (≈ 10.2 µM); Kinetic_solubility [3]: Soluble
	80		3 (≈ 8.03 µM)	Cc1cc(-c2nc(C3(c4ccc(-c5cnc(N)nc5)cc4)CCC3)no2)[nH]n1	
1.5	12	0.45		C[C@@](c1ccc(-c2cnc(N)nc2)nc1)(c1noc(-c2cnn(C3COC3)c2)n1)C1CC1	solubility [2]: Soluble; Kinetic_solubility [3]: Soluble
	71	< 0.24	25 (≈ 60 µM)	Nc1ncc(-c2ccc(C3(c4noc(-c5cnn(C6COC6)c5)n4)CCC3)cn2)cn1	inhibition at 5 min, 11 µM [7]: < 10%
	94		2 (≈ 4.68 µM)	CC(C)(C#N)n1cc(-c2nc(C3(c4ccc(-c5cnc(N)nc5)nc4)CCC3)no2)cn1	
1	37		17 (≈ 41.2 µM)	N#CCCn1cc(-c2nc(C3(c4ccc(-c5cnc(N)nc5)cc4)CCC3)no2)cn1	
53	99	0.36		CC(C)(O)CN1CCN(c2nc([C@@](C)(c3ccc(-c4cnc(N)nc4)cc3)C3CC3)no2)CC1	solubility [2]: Soluble; Kinetic_solubility [3]: Soluble; inhibition at 5 min, 14 µM [6]: 26%
12	58	0.52		CN(C)C(=O)N1CCN(c2nc([C@@](C)(c3ccc(-c4cnc(N)nc4)cc3)C3CC3)no2)CC1	solubility [2]: Soluble; Kinetic_solubility [3]: Soluble; inhibition at 5 min, 30 µM [10]: 36%
16	72	< 0.24		CC1(O)CN(c2nc([C@@](C)(c3ccc(-c4cnc(N)nc4)cc3)C3CC3)no2)C1	solubility [2]: Soluble; Kinetic_solubility [3]: Soluble; inhibition at 5 min, 11 µM [7]: 13%
8.1	19	0.57		C[C@@](c1ccc(-c2cnc(N)nc2)nc1)(c1noc(-c2cnn(CC#N)c2)n1)C1CC1	solubility [2]: Soluble; Kinetic_solubility [3]: Soluble
11	85		> 40	N#CCCn1cc(-c2nc(C3(c4ccc(-c5cnc(N)nc5)nc4)CCC3)no2)cn1	solubility thermodynamic at 24 h, 1 µM [2]: 9 µg/mL (≈ 21.8 µM)
